From publication PMC7540527, “Synthesis of Antiviral Perfluoroalkyl Derivatives of Teicoplanin and Vancomycin” (Chemmedchem, 2020)
In brackets after ≈: the same amount, converted by molar mass. Read-outs that look alike come from different tables or passages of the source.

How the values were obtained:
[1] = tested on: Bacillus subtilis ATCC 6633; experiment: Antibacterial MIC; assay type: cell-based; conditions: for MIC: Bacillus subtilis, ATCC6633, read-out: MIC Bacillus subtilis ATCC 6633
[2] = tested on: Staphylococcus aureus MSSA ATCC 29213; experiment: Antibacterial MIC; assay type: cell-based; conditions: for MIC: Staphylococcus aureus, read-out: MIC Staphylococcus aureus MSSA ATCC 29213
[3] = tested on: S. aureus MRSA ATCC 33591; experiment: Antibacterial MIC; assay type: cell-based, Staphylococcus aureus; conditions: for MIC: Staphylococcus aureus, read-out: MIC S. aureus MRSA ATCC 33591
[4] = tested on: Staphylococcus epidermidis ATCC 35984 biofilm; experiment: Antibacterial MIC; assay type: cell-based
[5] = tested on: Enterococcus faecalis ATCC 29212; experiment: Antibacterial MIC; assay type: cell-based; conditions: for MIC: Enterococcus faecalis, ATCC29212, read-out: MIC Enterococcus faecalis ATCC 29212
E. faecalis 15376 VanA = experiment: Antibacterial MIC; assay type: cell-based, Enterococcus faecalis; conditions: for MIC: Enterococcus faecalis, 15376VANA, read-out: MIC E. faecalis 15376 VanA
[6] = tested on: E. faecalis ATCC 51299 VanB; experiment: Antibacterial MIC; assay type: cell-based, Enterococcus faecalis; conditions: for MIC: Enterococcus faecalis, ATCC51299, read-out: MIC E. faecalis ATCC 51299 VanB
[7] = tested on: influenza A and B viruses; assay type: cell-based, influenza virus
[8] = tested on: HEL human embryonic lung fibroblast cells
HeLa cells = conditions: human
Vero cells = conditions: African green monkey
[9] = tested on: influenza A/H1N1 A/Ned/378/05; experiment: microbe, parasite or virus in culture; assay type: cell-based, influenza A virus
[10] = tested on: influenza A/H3N2 A/Victoria/361/11; experiment: microbe, parasite or virus in culture; assay type: cell-based, influenza A virus
[11] = tested on: influenza B virus B/Ned/537/05; experiment: CPE reduction assay for influenza virus in MDCK cells, influenza B; assay type: cell-based; conditions: MDCK cells
Experimental: The CPE reduction assay for influenza virus was described in full detail in previous publications.41 The virus strains were: A/PR/8/34 (A/H1 N1); A/Virginia/ATCC3/2009 (A/H1 N1pdm); A/HK/7/87 (A/H3 N2); B/Ned/537/05; and B/HK/5/72. On day 0, Madin‐Darby canine kidney (MDCK) cells in 96‐well plates were infected with influenza virus at a multiplicity of infection (MOI) of 0.0004 plaque forming units (PFU) per cell. After three days incubation at 35 °C, virus‐induced CPE and compound cytotoxicity were scored by microscopy, after which the data were confirmed by formazan‐based MTS cell viability assay (CellTiter 96® AQueous One Solution Cell Proliferation Assay from Promega). The antiviral effect was expressed as the compound concentration producing 50 % inhibition of the virus‐induced CPE (EC50). Compound cytotoxicity was expressed as the compound concentration causing minimal changes in cell morphology (MCC), and 50 % cytotoxic concentration (CC50) based on MTS assay.42

[12] = tested on: panel of Gram-positive bacteria; assay type: cell-based

CC(=O)NC1C(OC2c3ccc(c(Cl)c3)Oc3cc4cc(c3O)Oc3ccc(cc3Cl)CC3NC(=O)C(n5cc(COCCOCCOCCOCCOCCCC(F)(F)C(F)(F)C(F)(F)C(F)(F)C(F)(F)C(F)(F)C(F)(F)C(F)(F)F)nn5)c5ccc(O)c(c5)Oc5cc(O)cc(c5)C(NC3=O)C(=O)NC4C(=O)NC3C(=O)NC2C(=O)NC(C(=O)O)c2cc(O)cc(O)c2-c2cc3ccc2O)OC(CO)C(O)C1O (centres unmarked) [Compound 18]
MIC [1]: 4 µg/mL (≈ 1.89 µM)
MIC [2]: 8 µg/mL (≈ 3.77 µM)
MIC [3]: 4 µg/mL (≈ 1.89 µM)
MIC Staphylococcus epidermidis ATCC 35984 biofilm [4]: 4 µg/mL (≈ 1.89 µM)
MIC [5]: 16 µg/mL (≈ 7.55 µM)
MIC (E. faecalis 15376 VanA): 32 µg/mL (≈ 15.1 µM)
MIC [6]: 32 µg/mL (≈ 15.1 µM)
Activity against influenza strains (in words) [7]: without antiviral activity
Cytotoxicity in MDCK cells (in words) (MDCK cells): high cytotoxicity
CC50 (MDCK cells; dog): 4.2 µM
CC50 [8]: > 100 µM
CC50 (HeLa cells): 41 µM
CC50 (Vero cells): > 100 µM

teicoplanin [reference compound]
EC50 ([9]; read-out: Antiviral EC50 A/H1N1 CPE): > 100 µM
EC50 ([9]; read-out: Antiviral EC50 A/H1N1 MTS): > 100 µM
EC50 ([10]; read-out: Antiviral EC50 A/H3N2 CPE): > 100 µM
EC50 ([10]; read-out: Antiviral EC50 A/H3N2 MTS): > 100 µM
EC50 ([11]; B/Ned/537/05, MTS assay, read-out: Antiviral EC50 Influenza B MTS): > 100 µM
EC50 ([11]; B/Ned/537/05, visual CPE scoring, read-out: Antiviral EC50 Influenza B CPE): > 100 µM
MIC Bacillus subtilis ATCC 6633 [1]: 0.5 µg/mL
MIC Staphylococcus aureus MSSA ATCC 29213 ([2]; methicillin-sensitive): 0.5 µg/mL
MIC S. aureus MRSA ATCC 33591 ([3]; methicillin-resistant): 0.5 µg/mL
MIC Staphylococcus epidermidis ATCC 35984 biofilm [4]: 2 µg/mL
MIC Enterococcus faecalis ATCC 29212 [5]: 2 µg/mL
MIC E. faecalis 15376 VanA (E. faecalis 15376 VanA; vanA gene positive): 256 µg/mL
MIC E. faecalis ATCC 51299 VanB ([6]; vanB gene positive): 4 µg/mL
CC50 (MDCK cells): > 100 µM
Cytotoxicity MCC (minimum cytotoxic concentration) (MDCK cells): >100 µM

CN[C@H](CC(C)C)C(=O)N[C@H]1C(=O)N[C@@H](CC(N)=O)C(=O)N[C@H]2C(=O)N[C@H]3C(=O)N[C@H](C(=O)N[C@H](C(=O)O)c4cc(O)cc(O)c4-c4cc3ccc4O)[C@H](O)c3ccc(c(Cl)c3)Oc3cc2cc(c3O[C@@H]2O[C@H](CO)[C@@H](O)[C@H](O)[C@H]2O[C@H]2C[C@](C)(N)[C@H](O)[C@H](C)O2)Oc2ccc(cc2Cl)[C@H]1O [VAN, vancomycin]
MIC [1]: 0.5 µg/mL (≈ 0.345 µM)
MIC [2]: 0.5 µg/mL (≈ 0.345 µM)
MIC [3]: 0.5 µg/mL (≈ 0.345 µM)
MIC Staphylococcus epidermidis ATCC 35984 biofilm [4]: 2 µg/mL (≈ 1.38 µM)
MIC [5]: 1 µg/mL (≈ 0.69 µM)
MIC (E. faecalis 15376 VanA): 256 µg/mL (≈ 177 µM)
MIC [6]: 128 µg/mL (≈ 88.3 µM)

CC(=O)NC1C(OC2c3ccc(c(Cl)c3)Oc3cc4cc(c3O)Oc3ccc(cc3Cl)CC3NC(=O)C(n5cc(COCCOCCOCCOCCOCCCC(F)(F)C(F)(F)C(F)(F)C(F)(F)F)nn5)c5ccc(O)c(c5)Oc5cc(O)cc(c5)C(NC3=O)C(=O)NC4C(=O)NC3C(=O)NC2C(=O)NC(C(=O)O)c2cc(O)cc(O)c2-c2cc3ccc2O)OC(CO)C(O)C1O (centres unmarked) [Compound 16]
MIC [1]: 2 µg/mL (≈ 1.04 µM)
MIC [2]: 0.5 µg/mL (≈ 0.26 µM)
MIC [3]: 0.5 µg/mL (≈ 0.26 µM)
MIC Staphylococcus epidermidis ATCC 35984 biofilm [4]: 0.5 µg/mL (≈ 0.26 µM)
MIC [5]: 1 µg/mL (≈ 0.521 µM)
MIC (E. faecalis 15376 VanA): 2 µg/mL (≈ 1.04 µM)
MIC [6]: 1 µg/mL (≈ 0.521 µM)
Activity against influenza strains (in words) [7]: robust activity
CC50 (MDCK cells; dog): 97 µM
Cytotoxicity MCC (minimum cytotoxic concentration) (MDCK cells; dog): 100 µM
CC50 [8]: > 100 µM
CC50 (HeLa cells): > 100 µM
Cytotoxicity MCC (HeLa cells): > 100
CC50 (Vero cells): > 100 µM

CC(C)C[C@H](C(=O)N[C@H]1C(=O)N[C@@H](CC(N)=O)C(=O)N[C@H]2C(=O)N[C@H]3C(=O)N[C@H](C(=O)N[C@H](C(=O)O)c4cc(O)cc(O)c4-c4cc3ccc4O)[C@H](O)c3ccc(c(Cl)c3)Oc3cc2cc(c3O)Oc2ccc(cc2Cl)[C@H]1O)n1cc(COCCOCCOCCOCCOCCCC(F)(F)C(F)(F)C(F)(F)C(F)(F)F)nn1 [Compound 12]
MIC [1]: 32 µg/mL (≈ 19.4 µM)
MIC [2]: 4 µg/mL (≈ 2.43 µM)
MIC [3]: 8 µg/mL (≈ 4.85 µM)
MIC Staphylococcus epidermidis ATCC 35984 biofilm [4]: 8 µg/mL (≈ 4.85 µM)
MIC [5]: 8 µg/mL (≈ 4.85 µM)
MIC (E. faecalis 15376 VanA): 16 µg/mL (≈ 9.71 µM)
MIC [6]: 16 µg/mL (≈ 9.71 µM)
Antibacterial activity (in words) [12]: moderate activity
Cytotoxicity in MDCK cells (in words) (MDCK cells): highly cytotoxic
CC50 (MDCK cells; dog): 4 µM
Cytotoxicity MCC (minimum cytotoxic concentration) (MDCK cells; dog): 42 µM
CC50 (HeLa cells): > 100 µM
Cytotoxicity MCC (HeLa cells): > 100
